Ki data for four molecules are collected here from BindingDB's records for doi:10.1021/jm00164a044 (Niddk, 1990).

This experiment in a line: Muscarinic acetylcholine receptor binding affinity was determined using [3H]NMS for NG108-15 neuroblastoma cells.
As to `CC(=O)N(C)CC#CCN1CCCC1`, the affinity corresponds to a Ki of 4500 nM. This counts as single-digit micromolar. Molecule `CN(CC#CCN1CCCC1)C(=O)CCCCCCN` returned a Ki of 3100 nM. Molecule `CN(CC#CCN1CCCC1)C(=O)CCCCCCCN` had a Ki of 700 nM. To `CN(CC#CCN1CCCC1)C(=O)CCCCCCCNC(=O)OC(C)(C)C` belongs 1900 nM.
